Test: aqueous solubility
Type: physicochemical
Conditions: aqueous environments

With `CCOC(=O)N1c2ccc(C(F)(F)F)cc2[C@@H](N(Cc2cc(C(F)(F)F)cc(C(F)(F)F)c2)C(=O)OC)C[C@H]1CC` [torceptrapib, [2R,4S]-4-[(3,5-bis-trifluoromethyl-benzyl)-methoxycarbonyl-amino]-2-ethyl-6-trifluoromethyl-3,4-dihydro-2H-quinoline-1-carboxylic acid ethyl ester] the solubility was < 0.04 µg/mL.

Reference: patent publication US20040053842A1, “Methods of treatment with CETP inhibitors and antihypertensive agents” (Pfizer Inc., priority 2002, published 2004)
